Laboratory results reported in patent publication US6737383B1, “Herbicidal oxadiazolidines” (priority 1999, dated 2004).

Tests used:
[1] = tested on: soybean; experiment: Test B pre/postemergence soybean; assay type: in vivo, Glycine max
Outline: (§1)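 Herbicidal effect was estimated by eye on a ten-point control scale after plants spent twelve to sixteen days in a greenhouse following soil or foliar treatment. Foliar sprays targeted plants at one to four leaves; all doses were formulated in a non-phytotoxic solvent with surfactant.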

[2] = tested on: surinam grass; experiment: Test B pre/postemergence surinam grass; assay type: in vivo, Brachiaria decumbens
Outline: as §1

[3] = tested on: morningglory; experiment: Test B pre/postemergence morningglory; assay type: in vivo, Ipomoea hederacea
Outline: as §1

[4] = tested on: giant foxtail; experiment: Test B pre/postemergence giant foxtail; assay type: in vivo, Setaria faberii
Outline: as §1

[5] = tested on: blackgrass; experiment: Test B pre/postemergence blackgrass; assay type: in vivo, Alopecurus myosuroides
Outline: as §1

[6] = tested on: bedstraw; experiment: Test B pre/postemergence bedstraw; assay type: in vivo, Galium aparine
Outline: as §1

[7] = tested on: smallflower flatsedge; experiment: Test B flood test smallflower flatsedge; assay type: in vivo, Cyperus difformis
Outline: (§2)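 Each value is a visual injury score relative to controls, with 10 meaning complete control and 0 no effect. Evaluation took place twelve to sixteen days after the 2-leaf-stage plants were treated and kept in the greenhouse.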

[8] = tested on: wheat; experiment: Test B pre/postemergence wheat; assay type: in vivo, Triticum aestivum
Outline: as §1

[9] = tested on: bamyardgrass; experiment: Test B flood test barnyardgrass; assay type: in vivo, Echinochloa crus-galli
Outline: as §2

[10] = tested on: velvetleaf; experiment: Test B pre/postemergence velvetleaf; assay type: in vivo, Abutilon theophrasti
Outline: as §1

[11] = tested on: duck salad; experiment: Test B flood test duck salad; assay type: in vivo, Heteranthera limosa
Outline: as §2

[12] = tested on: purple nutsedge; experiment: Test B pre/postemergence purple nutsedge; assay type: in vivo, Cyperus rotundus
Outline: as §1

[13] = tested on: rape; experiment: Test B pre/postemergence rape; assay type: in vivo, Brassica napus
Outline: as §1

[14] = tested on: pigweed; experiment: Test B pre/postemergence pigweed; assay type: in vivo, Amaranthus retroflexus
Outline: as §1

[15] = tested on: wild oat; experiment: Test B pre/postemergence wild oat; assay type: in vivo, Avena fatua
Outline: as §1

[16] = tested on: cocklebur; experiment: Test B pre/postemergence cocklebur; assay type: in vivo, Xanthium strumarium
Outline: as §1

[17] = Preemergence, Rate 62 g/ha, scale of 0 to 10 where 0 is no effect and 10 is complete control
[18] = Preemergence, Rate 250 g/ha, scale of 0 to 10 where 0 is no effect and 10 is complete control
[19] = Preemergence, Rate 500 g/ha, scale of 0 to 10 where 0 is no effect and 10 is complete control
[20] = Rate 62 g/ha, Postemergence, scale of 0 to 10 where 0 is no effect and 10 is complete control
[21] = Rate 125 g/ha, Postemergence, scale 0 to 10
[22] = Rate 125 g/ha, Preemergence, scale of 0 to 10 where 0 is no effect and 10 is complete control
[23] = Rate 500 g/ha, Postemergence, scale 0 to 10, 0 no effect, 10 complete control
[24] = Rate 62 g/ha, headed Pre-emergence (flood test species), scale 0 to 10 (0 no effect, 10 complete control)
[25] = Rate 125 g/ha, Pre-emergence, flood test species, scale 0 to 10 where 0 is no effect and 10 is complete control
[26] = Rate 250 g/ha, Pre-emergence, flood-test species, scale 0 to 10, 0 is no effect, 10 is complete control
[27] = Rate 500 g/ha, Pre-emergence, flood test species, scale 0 to 10 (0 no effect, 10 complete control)

SMILES: CCN(C(=O)n1oc(=O)n(C)c1=O)C1CCCCC1 [Compound 228]
- Soybean plant response rating [1, 17]: 0
- Soybean plant response rating [1, 18]: 0
- Plant response rating, Soybean [1, 19]: 0
- Soybean plant response rating [1, 20]: 0
- Soybean plant response rating [1, 21]: 0
- Soybean plant response rating [1, 22]: 0
- Plant response rating (0 to 10; 0 is no effect, 10 is complete control), Soybean ([1]; Rate 250 g/ha, Postemergence): 1
- Soybean plant response rating [1, 23]: 1
- B. signalgrass plant response rating [2, 17]: 0
- B. signalgrass plant response rating ([2]; Preemergence, Rate 250 g/ha, scale 0 to 10, 0 is no effect, 10 is complete control): 0
- Plant response rating, B. signalgrass [2, 19]: 0
- B. signalgrass plant response rating [2, 20]: 0
- B. signalgrass plant response rating ([2]; Rate 125 g/ha, Postemergence, scale 0 (no effect) to 10 (complete control)): 0
- B. signalgrass plant response rating [2, 22]: 0
- Plant response rating (0 to 10; 0 is no effect, 10 is complete control), B. signalgrass ([2]; Rate 250 g/ha, Postemergence): 0
- B. signalgrass plant response rating [2, 23]: 0
- Morningglory plant response rating [3, 17]: 0
- Morningglory plant response rating [3, 18]: 0
- Plant response rating, Morningglory [3, 19]: 0
- Morningglory plant response rating [3, 20]: 2
- Morningglory plant response rating [3, 21]: 3
- Morningglory plant response rating [3, 22]: 0
- Plant response rating (0 to 10; 0 is no effect, 10 is complete control), Morningglory ([3]; Rate 250 g/ha, Postemergence): 3
- Morningglory plant response rating [3, 23]: 9
- Giant foxtail plant response rating [4, 18]: 9
- Plant response rating, Giant foxtail [4, 19]: 9
- Giant foxtail plant response rating [4, 20]: 0
- Giant foxtail plant response rating [4, 21]: 0
- Giant foxtail plant response rating [4, 22]: 6
- Plant response rating (0 to 10; 0 is no effect, 10 is complete control), Giant foxtail ([4]; Rate 250 g/ha, Postemergence): 0
- Giant foxtail plant response rating [4, 23]: 0
- Blackgrass plant response rating [5, 17]: 0
- Blackgrass plant response rating [5, 18]: 0
- Plant response rating, Blackgrass [5, 19]: 0
- Blackgrass plant response rating [5, 20]: 0
- Blackgrass plant response rating [5, 21]: 0
- Blackgrass plant response rating [5, 22]: 0
- Plant response rating (0 to 10; 0 is no effect, 10 is complete control), Blackgrass ([5]; Rate 250 g/ha, Postemergence): 0
- Blackgrass plant response rating [5, 23]: 0
- Bedstraw plant response rating [6, 17]: 0
- Bedstraw plant response rating [6, 18]: 0
- Plant response rating, Bedstraw [6, 19]: 0
- Bedstraw plant response rating [6, 20]: 0
- Bedstraw plant response rating [6, 21]: 0
- Bedstraw plant response rating [6, 22]: 0
- Plant response rating (0 to 10; 0 is no effect, 10 is complete control), Bedstraw ([6]; Rate 250 g/ha, Postemergence): 0
- Bedstraw plant response rating [6, 23]: 2
- S. Flatsedge plant response rating [7, 24]: 0
- S. Flatsedge plant response rating [7, 25]: 0
- S. Flatsedge plant response rating [7, 26]: 0
- S. Flatsedge plant response rating [7, 27]: 0
- Wheat plant response rating [8, 17]: 0
- Wheat plant response rating [8, 18]: 0
- Plant response rating, Wheat [8, 19]: 0
- Wheat plant response rating [8, 20]: 0
- Wheat plant response rating [8, 21]: 0
- Wheat plant response rating [8, 22]: 0
- Plant response rating (0 to 10; 0 is no effect, 10 is complete control), Wheat ([8]; Rate 250 g/ha, Postemergence): 0
- Wheat plant response rating [8, 23]: 0
- Barnyardgrass plant response rating [9, 24]: 0
- Barnyardgrass plant response rating [9, 25]: 0
- Barnyardgrass plant response rating [9, 26]: 0
- Barnyardgrass plant response rating [9, 27]: 0
- Velvetleaf plant response rating [10, 17]: 0
- Velvetleaf plant response rating [10, 18]: 0
- Plant response rating, Velvetleaf [10, 19]: 0
- Velvetleaf plant response rating [10, 20]: 0
- Velvetleaf plant response rating [10, 21]: 0
- Velvetleaf plant response rating [10, 22]: 0
- Plant response rating (0 to 10; 0 is no effect, 10 is complete control), Velvetleaf ([10]; Rate 250 g/ha, Postemergence): 0
- Velvetleaf plant response rating [10, 23]: 0
- Ducksalad plant response rating [11, 24]: 0
- Ducksalad plant response rating [11, 25]: 0
- Ducksalad plant response rating [11, 26]: 0
- Ducksalad plant response rating [11, 27]: 0
- Nutsedge plant response rating [12, 17]: 0
- Nutsedge plant response rating [12, 18]: 0
- Plant response rating, Nutsedge [12, 19]: 0
- Nutsedge plant response rating [12, 20]: 0
- Nutsedge plant response rating [12, 21]: 0
- Nutsedge plant response rating [12, 22]: 0
- Plant response rating (0 to 10; 0 is no effect, 10 is complete control), Nutsedge ([12]; Rate 250 g/ha, Postemergence): 0
- Nutsedge plant response rating [12, 23]: 0
- Rape plant response rating [13, 17]: 0
- Rape plant response rating [13, 18]: 0
- Plant response rating, Rape [13, 19]: 0
- Rape plant response rating [13, 20]: 0
- Rape plant response rating [13, 21]: 0
- Rape plant response rating [13, 22]: 0
- Plant response rating (0 to 10; 0 is no effect, 10 is complete control), Rape ([13]; Rate 250 g/ha, Postemergence): 0
- Rape plant response rating [13, 23]: 0
- Redroot pigweed plant response rating [14, 17]: 0
- Redroot pigweed plant response rating [14, 18]: 0
- Plant response rating, Redroot pigweed [14, 19]: 0
- Redroot pigweed plant response rating [14, 20]: 0
- Redroot pigweed plant response rating [14, 21]: 0
- Redroot pigweed plant response rating [14, 22]: 0
- Plant response rating (0 to 10; 0 is no effect, 10 is complete control), Redroot pigweed ([14]; Rate 250 g/ha, Postemergence): 0
- Redroot pigweed plant response rating [14, 23]: 2
- Wild oats plant response rating [15, 17]: 0
- Wild oats plant response rating [15, 18]: 0
- Plant response rating, Wild oats [15, 19]: 0
- Wild oats plant response rating [15, 20]: 0
- Wild oats plant response rating [15, 21]: 0
- Wild oats plant response rating [15, 22]: 0
- Plant response rating (0 to 10; 0 is no effect, 10 is complete control), Wild oats ([15]; Rate 250 g/ha, Postemergence): 0
- Wild oats plant response rating [15, 23]: 0
- Cocklebur plant response rating [16, 17]: 0
- Cocklebur plant response rating [16, 18]: 0
- Plant response rating, Cocklebur [16, 19]: 0
- Cocklebur plant response rating [16, 20]: 0
- Cocklebur plant response rating [16, 21]: 0
- Cocklebur plant response rating [16, 22]: 0
- Plant response rating (0 to 10; 0 is no effect, 10 is complete control), Cocklebur ([16]; Rate 250 g/ha, Postemergence): 0
- Cocklebur plant response rating [16, 23]: 0
